The results in this text go back to patent US20220160716A1 (SORBONNE UNIVERSITE, priority 2019, published 2022).

Test [1] has as its target T1, ABCB4-L556R (Homo sapiens, UniProt P21439, L556R). The test is described as follows: ABCB4-mediated phosphatidylcholine secretion, HEK cells expressing ABCB4-L556R. Particulars: 25 μM. Type of test: cell-based. On the set-up: The subcloning of wild type (WT) ABCB4, isoform A (NM_000443.3), into pcDNA3 vector has been described; expressed in transfected cells; host or cells: HEK-293 (immunoblot, PC secretion). Here is the method: Cyclosporin A (CsA) was from Santa Cruz Biotechnologies (Dallas, Tex.). […] Each compound was solubilized in dimethylsulfoxide (DMSO) as 1000× concentrated stock solutions in order to treat cells with 5 μM to 100 μM final concentrations, using DMSO as control vehicle at the same dilution (0.1% DMSO for all conditions). The cells were treated 24 hours post-transfection with these drugs during 16 hours, except for the viability assays for which cells were treated during three days. After drug treatment, cells were used for immunoanalyses, cell viability assays or PC secretion assays.
HEK cells were seeded in 0.01% poly-L-lysine (Sigma) pre-coated 6-well plates of 10 cm^2 area per well (1.3×10^6 cells per well). After transient transfection of the empty vector (control), plasmids encoding ABCB4-WT or its variants, cells were incubated during 24 hours at 37° C. in serum-free medium supplemented with 0.5 mM sodium taurocholate (Sigma) and 0.02% fatty acid-free bovine serum albumin (Sigma). Then, the secreted PC was quantified from the collected media using a fluoro-enzymatic assay previously described (12). Each condition was analysed in triplicate, after background subtraction, and results were normalized to the expression levels of ABCB4 determined by immunoblots of the corresponding cell lysates.

The target in test [2] is T1, ABCB4-L556R. The test is described as follows: Maturation of ABCB4-L556R by immunoblot in HEK cells. Type of test: cell-based. The arrangement: The subcloning of wild type (WT) ABCB4, isoform A (NM_000443.3), into pcDNA3 vector has been described; expressed in transfected cells; host or cells: HEK-293 (immunoblot, PC secretion). The note with it: 5 to 25 μM. The protocol:
(§1) Western blots and indirect immunofluorescence were performed as previously described (2, 12). […] Saturated membranes were incubated with mouse monoclonal anti-ABCB4 (clone P3II-26; Enzo Life Sciences, Villeurbanne, France) or anti-α-tubulin (clone 1E4C11; ProteinTech, Manchester, United Kingdom) antibodies and then with peroxidase conjugated anti-mouse secondary antibodies (Sigma). Signals were detected with ECL prime western blotting detection reagent (GE Healthcare, Velizy-Villacoublay, France) and quantified in the linear range of detection using ImageJ 1.50i software (U.S. National Institutes of Health, Bethesda, Md.).
On the technique in general: In western blotting, separated proteins are transferred to a membrane and probed.

Test [3] has as its target T2, DYRK1A (Homo sapiens, UniProt Q13627).
T2 construct: made in house
The test is described as follows: Protein kinase catalytic activity assay, DYRK1A. Type of test: biochemical. The note with it: read-out: IC50 of protein kinases, DYRK1A.

The target in test [4] is T3, CDK5/p25 (Homo sapiens, UniProt Q00535).
T3 construct: made in house
T3 sequence (Q00535 whole entry, species assumed): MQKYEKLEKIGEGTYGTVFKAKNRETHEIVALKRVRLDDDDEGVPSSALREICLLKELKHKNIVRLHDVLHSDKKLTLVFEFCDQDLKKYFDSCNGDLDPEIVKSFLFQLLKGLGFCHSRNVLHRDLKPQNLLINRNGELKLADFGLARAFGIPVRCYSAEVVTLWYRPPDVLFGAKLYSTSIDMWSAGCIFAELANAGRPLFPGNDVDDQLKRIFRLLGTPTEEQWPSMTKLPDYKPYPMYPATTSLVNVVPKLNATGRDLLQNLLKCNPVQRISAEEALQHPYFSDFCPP
T3 sequence (Q15078 99-307 partner limits assumed, species assumed): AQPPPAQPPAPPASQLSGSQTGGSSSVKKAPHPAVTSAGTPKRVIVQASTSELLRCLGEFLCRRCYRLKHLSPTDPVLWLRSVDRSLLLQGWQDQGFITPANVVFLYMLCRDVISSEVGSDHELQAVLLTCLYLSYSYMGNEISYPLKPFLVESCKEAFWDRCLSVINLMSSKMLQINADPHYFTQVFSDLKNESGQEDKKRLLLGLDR
Type of test: biochemical. The note with it: activator p25; read-out: IC50 of protein kinases, CDK5/p25.

For test [5], the target named is T1, ABCB4-L556R. The test is described as follows: Canalicular localisation of ABCB4-L556R by indirect immunofluorescence in HepG2 cells. Type of test: cell-based. On the set-up: The subcloning of wild type (WT) ABCB4, isoform A (NM_000443.3), into pcDNA3 vector has been described; expressed in transfected cells; host or cells: HepG2 (immunofluorescence). The note with it: 25 μM. The protocol:
For indirect immunofluorescence, HepG2 cells were grown on glass coverslips and after transfection and treatments, they were fixed and permeabilized during 1 min at −20° C. in ice-cold methanol. Then ABCB4 and ABCC2 were immunolabelled using the mouse monoclonal P3II-26 (IgG2b) and M2I-4 (IgG1) antibodies (Enzo Life Sciences), respectively. AlexaFluor® 555 and AlexaFluor® 488 conjugated isotype-specific secondary antibodies (Thermo Fisher Scientific) and Hoechst 33342 (Thermo Fisher Scientific) were used to label ABCB4, ABCC2 and nuclei, respectively. Images were acquired using an IX83 inverted fluorescence microscope from Olympus (Rungis, France), equipped with a UPLSAPO 60XS2 silicone immersion objective and a Hamamatsu ORCA Flash4.0 digital CMOS camera, and analysed using Olympus CellSens Dimension Desktop version 1.16 and Adobe Photoshop version 8.0.1. For each experiment, all images were acquired with constant settings (acquisition time and correction of signal intensities).

In test [6] the target is ABCB4-I490T (Homo sapiens, UniProt P21439, I490T). The test is described as follows: Maturation of ABCB4-I490T by immunoblot in HEK cells. Type of test: cell-based. The arrangement: The subcloning of wild type (WT) ABCB4, isoform A (NM_000443.3), into pcDNA3 vector has been described; expressed in transfected cells; host or cells: HEK-293 (immunoblot, PC secretion). Particulars: 5 to 25 μM. Here is the method: as §1
Chain of ABCB4-I490T (P21439 1-1279 isoform P21439-2 I490T): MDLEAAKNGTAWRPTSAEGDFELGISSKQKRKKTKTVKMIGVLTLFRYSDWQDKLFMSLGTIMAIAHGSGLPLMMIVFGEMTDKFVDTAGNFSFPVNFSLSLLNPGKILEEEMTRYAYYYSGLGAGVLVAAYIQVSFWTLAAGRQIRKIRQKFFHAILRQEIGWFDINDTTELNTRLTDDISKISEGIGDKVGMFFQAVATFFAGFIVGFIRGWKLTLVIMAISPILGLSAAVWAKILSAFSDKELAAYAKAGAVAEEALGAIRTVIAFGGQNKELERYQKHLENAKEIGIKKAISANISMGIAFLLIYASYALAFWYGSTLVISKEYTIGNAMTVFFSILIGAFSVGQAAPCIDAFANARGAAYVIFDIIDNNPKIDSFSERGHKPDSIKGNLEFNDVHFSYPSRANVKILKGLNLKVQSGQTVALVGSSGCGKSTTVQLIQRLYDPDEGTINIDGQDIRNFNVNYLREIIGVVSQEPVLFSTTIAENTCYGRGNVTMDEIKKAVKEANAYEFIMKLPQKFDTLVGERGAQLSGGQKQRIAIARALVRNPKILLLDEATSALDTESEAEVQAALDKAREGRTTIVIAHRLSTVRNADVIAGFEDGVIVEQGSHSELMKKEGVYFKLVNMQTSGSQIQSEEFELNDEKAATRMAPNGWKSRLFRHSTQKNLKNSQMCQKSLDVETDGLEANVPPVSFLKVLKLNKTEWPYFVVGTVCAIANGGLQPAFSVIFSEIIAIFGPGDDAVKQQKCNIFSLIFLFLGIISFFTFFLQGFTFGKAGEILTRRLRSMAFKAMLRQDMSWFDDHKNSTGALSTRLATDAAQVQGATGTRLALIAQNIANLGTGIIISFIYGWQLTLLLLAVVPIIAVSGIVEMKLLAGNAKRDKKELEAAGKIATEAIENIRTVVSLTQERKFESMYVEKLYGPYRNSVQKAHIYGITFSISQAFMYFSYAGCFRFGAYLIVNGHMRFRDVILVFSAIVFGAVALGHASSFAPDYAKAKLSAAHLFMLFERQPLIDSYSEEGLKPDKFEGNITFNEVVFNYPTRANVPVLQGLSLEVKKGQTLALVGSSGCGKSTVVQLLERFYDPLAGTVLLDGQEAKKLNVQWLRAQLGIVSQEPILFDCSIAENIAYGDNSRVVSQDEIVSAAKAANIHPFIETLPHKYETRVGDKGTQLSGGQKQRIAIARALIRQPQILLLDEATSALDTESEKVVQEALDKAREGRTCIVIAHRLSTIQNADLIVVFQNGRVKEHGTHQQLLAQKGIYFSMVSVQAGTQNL

The target of test [7] is ABCB4-I541F (Homo sapiens, UniProt P21439, I541F). The test can be described thus: Canalicular localisation of ABCB4-I541F by indirect immunofluorescence in HepG2 cells. Type of test: cell-based. The arrangement: The subcloning of wild type (WT) ABCB4, isoform A (NM_000443.3), into pcDNA3 vector has been described; expressed in transfected cells; host or cells: HepG2 (immunofluorescence). Particulars: 16 hours. Here is the method: For indirect immunofluorescence, HepG2 cells were grown on glass coverslips and after transfection and treatments, they were fixed and permeabilized during 1 min at −20° C. in ice-cold methanol. Then ABCB4 and ABCC2 were immunolabelled using the mouse monoclonal P3II-26 (IgG2b) and M2I-4 (IgG1) antibodies (Enzo Life Sciences), respectively. […] For each experiment, all images were acquired with constant settings (acquisition time and correction of signal intensities).
Chain of ABCB4-I541F (P21439 1-1279 isoform P21439-2 I541F): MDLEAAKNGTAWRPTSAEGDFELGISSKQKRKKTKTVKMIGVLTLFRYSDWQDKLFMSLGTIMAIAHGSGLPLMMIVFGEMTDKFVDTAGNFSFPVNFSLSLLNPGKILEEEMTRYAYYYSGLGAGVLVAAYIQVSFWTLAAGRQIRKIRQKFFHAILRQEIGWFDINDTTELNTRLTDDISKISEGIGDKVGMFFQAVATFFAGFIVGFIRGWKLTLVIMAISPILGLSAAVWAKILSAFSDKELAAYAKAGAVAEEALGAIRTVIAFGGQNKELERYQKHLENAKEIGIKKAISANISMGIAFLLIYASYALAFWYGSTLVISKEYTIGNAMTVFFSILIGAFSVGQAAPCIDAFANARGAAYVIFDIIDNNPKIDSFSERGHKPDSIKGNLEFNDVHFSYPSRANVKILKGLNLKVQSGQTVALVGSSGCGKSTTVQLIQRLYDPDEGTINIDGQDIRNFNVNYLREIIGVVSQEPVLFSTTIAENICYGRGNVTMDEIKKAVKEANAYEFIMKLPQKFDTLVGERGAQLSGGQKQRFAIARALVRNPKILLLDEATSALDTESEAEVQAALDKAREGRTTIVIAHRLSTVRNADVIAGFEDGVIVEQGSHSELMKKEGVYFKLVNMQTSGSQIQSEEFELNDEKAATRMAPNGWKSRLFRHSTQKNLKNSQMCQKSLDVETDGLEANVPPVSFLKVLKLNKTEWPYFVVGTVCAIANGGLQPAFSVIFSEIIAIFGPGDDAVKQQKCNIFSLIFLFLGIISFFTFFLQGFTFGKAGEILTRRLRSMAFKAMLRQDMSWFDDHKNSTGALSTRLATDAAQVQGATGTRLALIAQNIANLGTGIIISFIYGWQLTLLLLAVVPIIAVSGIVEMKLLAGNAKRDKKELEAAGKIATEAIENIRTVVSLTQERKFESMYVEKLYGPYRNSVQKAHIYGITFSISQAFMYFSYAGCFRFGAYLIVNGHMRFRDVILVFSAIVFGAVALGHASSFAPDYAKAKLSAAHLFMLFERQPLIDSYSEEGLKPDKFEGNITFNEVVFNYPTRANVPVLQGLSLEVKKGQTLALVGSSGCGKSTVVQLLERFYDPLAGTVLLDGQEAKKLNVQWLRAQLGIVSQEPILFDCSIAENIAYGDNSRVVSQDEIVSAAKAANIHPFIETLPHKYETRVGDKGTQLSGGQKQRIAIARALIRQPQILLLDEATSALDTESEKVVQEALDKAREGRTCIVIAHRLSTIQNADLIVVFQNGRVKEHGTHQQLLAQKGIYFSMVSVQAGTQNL

T1 sequence (P21439 1-1279 isoform P21439-2 L556R): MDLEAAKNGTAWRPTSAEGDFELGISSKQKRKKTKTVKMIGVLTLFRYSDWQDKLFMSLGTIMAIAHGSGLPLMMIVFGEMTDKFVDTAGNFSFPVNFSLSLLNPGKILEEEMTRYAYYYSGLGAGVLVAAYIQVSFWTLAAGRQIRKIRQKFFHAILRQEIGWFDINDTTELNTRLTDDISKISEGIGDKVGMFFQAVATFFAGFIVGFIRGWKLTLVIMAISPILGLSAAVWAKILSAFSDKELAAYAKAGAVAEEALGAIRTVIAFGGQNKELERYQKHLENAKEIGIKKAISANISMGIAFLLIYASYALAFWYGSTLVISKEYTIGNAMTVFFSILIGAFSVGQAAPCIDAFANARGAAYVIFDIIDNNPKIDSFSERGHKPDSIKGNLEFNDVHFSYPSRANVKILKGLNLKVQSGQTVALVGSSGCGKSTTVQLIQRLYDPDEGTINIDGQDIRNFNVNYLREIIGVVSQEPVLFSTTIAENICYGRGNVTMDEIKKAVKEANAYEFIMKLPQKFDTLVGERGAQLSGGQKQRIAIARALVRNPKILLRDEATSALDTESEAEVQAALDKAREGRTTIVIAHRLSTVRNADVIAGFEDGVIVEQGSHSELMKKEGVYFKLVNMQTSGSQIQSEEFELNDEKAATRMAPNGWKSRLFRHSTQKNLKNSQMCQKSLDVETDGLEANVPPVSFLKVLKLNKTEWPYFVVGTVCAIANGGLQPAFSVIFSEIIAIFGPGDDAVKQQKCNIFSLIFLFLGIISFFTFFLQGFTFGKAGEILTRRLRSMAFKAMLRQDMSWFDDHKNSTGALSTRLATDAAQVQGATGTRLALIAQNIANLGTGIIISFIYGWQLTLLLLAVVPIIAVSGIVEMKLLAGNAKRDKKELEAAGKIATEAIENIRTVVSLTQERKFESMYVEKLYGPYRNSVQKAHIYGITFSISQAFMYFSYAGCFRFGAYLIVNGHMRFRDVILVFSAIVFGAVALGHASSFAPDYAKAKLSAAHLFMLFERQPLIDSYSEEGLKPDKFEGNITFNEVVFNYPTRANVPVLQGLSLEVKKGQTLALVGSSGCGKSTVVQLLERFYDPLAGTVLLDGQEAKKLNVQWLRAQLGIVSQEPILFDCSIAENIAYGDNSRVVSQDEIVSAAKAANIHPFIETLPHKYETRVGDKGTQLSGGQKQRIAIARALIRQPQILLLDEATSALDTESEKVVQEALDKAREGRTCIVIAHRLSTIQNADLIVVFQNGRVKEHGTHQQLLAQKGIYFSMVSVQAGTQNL

For `CC[C@@H](Nc1nc(NCc2cccc(F)c2)c2ncn(C3CCCC3)c2n1)C(=O)O` [MRT2-235], the “PC secretion residual activity of ABCB4-L556R” value (from here on “PC secretion residual activity”) in test [1] is on record as “significant increase of the residual activity”. Further, the “rescue of the maturation of ABCB4-L556R” value in test [2] is “dose-dependent rescue of the maturation”. For the same compound, the results for the IC50 in test [3] and in test [4] were 21 µM and 8.3 µM, respectively. Further, the “relocalisation of ABCB4-L556R at bile canaliculi” value (“relocalisation of ABCB4-L556R” for short) in test [5] was “partially relocalised at bile canaliculi”. In test [6], the “rescue of the maturation of ABCB4-I490T” value is “dose-dependent rescue of the maturation”. Also, the “relocalisation of ABCB4-I541F at bile canaliculi” value (“relocalisation of ABCB4-I541F” below) in test [7] (25 μM) and in test [7] (100 μM) was “partial relocalisation of ABCB4-I541F at bile canaliculi” in each case.
Turning to `CC[C@@H](Nc1nc(NCc2cccc(Cl)c2)c2ncn(C3CCCC3)c2n1)C(=O)O` [MRT2-237], in test [1], the “PC secretion residual activity” value is recorded as “significant increase of the residual activity”. For the same compound, the “rescue of the maturation of ABCB4-L556R” value in test [2] is recorded as “dose-dependent rescue of the maturation”. The values for the IC50 in test [3] and in test [4] were 13 µM and 7.7 µM, respectively. Further, the “relocalisation of ABCB4-L556R” value in test [5] is reported as “partially relocalised at bile canaliculi”. For the same compound, the “rescue of the maturation of ABCB4-I490T” value in test [6] is given as “dose-dependent rescue of the maturation”. In addition, the “relocalisation of ABCB4-I541F” value in test [7] (25 μM) and in test [7] (100 μM) was “partial relocalisation of ABCB4-I541F at bile canaliculi” each time.
`CC[C@@H](Nc1nc(NCc2ccc(Cl)c(F)c2)c2ncn(C3CCCC3)c2n1)C(=O)O` [MRT2-243]: the “PC secretion residual activity” value in test [1] is “significant increase of the residual activity”. Moreover, the “rescue of the maturation of ABCB4-L556R” value in test [2] was “dose-dependent rescue of the maturation”. Also, the IC50 is 12 µM in test [3] and 6.3 µM in test [4]. The “relocalisation of ABCB4-L556R” value in test [5] was “partially relocalised at bile canaliculi”. Moreover, in test [6], the “rescue of the maturation of ABCB4-I490T” value is “dose-dependent rescue of the maturation”. Further, the “relocalisation of ABCB4-I541F” value in test [7] (25 μM) and in test [7] (100 μM) was “partial relocalisation of ABCB4-I541F at bile canaliculi” each time.
